{
  "source": "patent US20060122267A1",
  "about": "“Compositions and methods for attenuating mitochondria-mediated cell injury” (priority 2003, published 2006)",
  "key": {"[1]": {"biological_target": "T1, mitochondrial complex I (Rattus norvegicus, UniProt Q66HF1)", "T1 construct": "Rat heart mitochondria were isolated using differential centrifugation; from tissue; host or cells: rat heart mitochondria (male Sprague-Dawley rats)", "T1 sequence (Q66HF1 24-727, one chain of several)": "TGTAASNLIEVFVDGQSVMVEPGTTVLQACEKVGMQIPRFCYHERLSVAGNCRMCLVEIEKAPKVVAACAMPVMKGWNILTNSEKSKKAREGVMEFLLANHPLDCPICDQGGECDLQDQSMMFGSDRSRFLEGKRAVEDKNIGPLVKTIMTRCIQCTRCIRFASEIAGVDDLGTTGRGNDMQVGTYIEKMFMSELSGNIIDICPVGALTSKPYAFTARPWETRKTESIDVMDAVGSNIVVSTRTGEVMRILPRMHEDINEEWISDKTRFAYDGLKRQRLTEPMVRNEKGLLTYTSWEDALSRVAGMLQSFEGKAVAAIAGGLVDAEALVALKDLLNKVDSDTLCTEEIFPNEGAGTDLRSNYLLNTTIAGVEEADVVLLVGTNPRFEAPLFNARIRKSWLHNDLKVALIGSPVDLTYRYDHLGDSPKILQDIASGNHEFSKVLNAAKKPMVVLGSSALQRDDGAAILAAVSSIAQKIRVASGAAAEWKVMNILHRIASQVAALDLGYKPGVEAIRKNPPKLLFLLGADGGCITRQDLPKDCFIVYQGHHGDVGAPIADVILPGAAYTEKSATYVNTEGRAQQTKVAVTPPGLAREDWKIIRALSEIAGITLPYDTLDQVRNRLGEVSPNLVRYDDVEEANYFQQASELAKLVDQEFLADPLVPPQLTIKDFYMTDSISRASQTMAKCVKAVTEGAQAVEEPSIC", "assay": "Complex I activity (rotenone-sensitive NADH/Co-Q1 oxidation/reduction) in NO donor-treated mitochondria", "assay_type": "biochemical", "method": "Rat heart mitochondria were isolated using differential centrifugation (Tompkins, et al. (2005) Biochim. Biophys. Acta PMID: 16278076). Protein was determined by the Folin-phenol method (Lowry, et al. (1951) J. Bio. Chem. 193:265-75) against a standard curve constructed using bovine serum albumin. Mitochondrial incubations and all subsequent steps were performed in the dark. One mg of mitochondrial protein was suspended in 1 mL of mitochondrial respiration buffer (Tompkins, et al. (2005) supra) containing respiratory substrates glutamate (5 mM), malate (2.5 mM) and succinate (5 mM). […] Samples were centrifuged (5 minutes, 14,000×g), and supernatants removed. The pellets were then resuspended in 1 mL of respiration buffer, and centrifuged again. Pellets were frozen in liquid N2 for subsequent analysis. For ONOO^− treatments, 4 μL of 25 mM ONOO^− stock (100 μM final concentration) was added the cap of the reaction tube, the cap quickly closed and the tube shaken immediately. The process was then repeated twice at 30 second intervals, for a total of 3 additions. Mitochondria were then pelleted, washed, and frozen as for S-nitrosoglutathione samples. Complex I activity was assayed as the rotenone-sensitive oxidation of NADH, at 340 nm in the presence of coenzyme Q1 (Borutaite, et al. (2000) supra). […]"}, "[2]": {"biological_target": "T2, 75 kDa subunit of complex I (Rattus norvegicus, UniProt Q66HF1)", "T2 construct": "Mitochondrial protein (3 mg) was extracted in 300 μL of column running buffer; from tissue; host or cells: rat heart mitochondria, SUPEROSE 6 column fraction enriched in complex I", "T2 sequence (Q66HF1 24-727, one chain of several)": "as above", "assay": "SUPEROSE 6 chromatography S-nitrosothiol profile with biotin switch identification of S-nitrosated peptide", "assay_type": "biochemical", "conditions": "S-nitrosoglutathione-treated mitochondria", "excerpt": "To simplify separation of complex I, SUPEROSE™ 6 gel filtration chromatography was employed as a liquid phase high-throughput separation method (Danial, et al. (2003) Nature 424:952-6). Chemiluminescent analysis of column fractions was then used to construct an S-nitrosothiol profile. Most S-nitrosothiol concentrated in two regions of the chromatogram, eluting at ˜35% and 85% of the column bed volume.\nThe fraction with most S-nitrosothiol content was enriched in complex I activity, and was then further analyzed by biotin switch assay to identify S-nitrosated peptides (i.e., which of the 46 subunits in complex I was S-nitrosated). […]\nA 25 cm×1 cm BIO-RAD® glass ECONO-COLUMN™ was used, with appropriate flow adaptor (BIO-RAD®, Hercules Calif.) and a MASTERFLEX™ peristaltic pump (Cole Parmer, Vernon Hills, Ill.). […] Fractions (200 μL) were collected, and their A280 measured to determine relative protein content. In addition, the S-nitrosothiol content and complex I activity of each fraction were analyzed as disclosed herein. […] Therefore, for data comparison the relative position of eluted column fractions was expressed as a percentage of the total column bed volume. […]\nFor biotin-switch analysis, intact mitochondrial pellets (1 mg protein solubilized in extraction buffer) or chromatography column fractions were analyzed in accordance with known methods (Jaffrey & Snyder (2001) supra). […]"}},
  "data": [
    {"smiles": "N[C@@H](CCC(=O)N[C@@H](CSN=O)C(=O)NCC(=O)O)C(=O)O", "note": "[S-nitrosoglutathione]", "values": [
      {"measurement": "complex I inhibition", "setting": "[1]; S-nitrosoglutathione treatment of mitochondria, exposure to light", "value": "complex I inhibition that was reversible by exposure of mitochondria to light"},
      {"measurement": "maximum complex I inhibition", "setting": "[1]; dose response 10-500 μM", "value": "20-25%"},
      {"measurement": "share of total protein-bound S-nitrosothiol contained in the 75 kDa subunit of complex I", "setting": "[2]", "value": "~20", "unit": "%"}
    ]}
  ]
}
